In the NIST ThermoML archive (doi:10.1016/j.jct.2015.08.014):

Test: xn = mol fraction of the nth substance listed
Settings: 298.15 K, 100 kPa, Liquid; for viscosity: Capillary tube (Ostwald / Ubbelohde) method; for electrical conductivity: Alternating current cell with electrodes

CCCC[N+]1(C)CCCC1.N#CN=C=[N-] [1-butyl-1-methylpyrrolidinium dicyanamide] + O=C1CCCO1
Settings	viscosity [mPa·s]
x1 = 0.4985	11.38
x1 = 0.6954	18.62
x1 = 0.9013	28.31
x1 = 1	33.71

electrical conductivity [S/m]
Settings	Frequency=0.0005 MHz	Frequency=0.001 MHz	Frequency=0.0015 MHz	Frequency=0.002 MHz	Frequency=0.0025 MHz	Frequency=0.003 MHz	Frequency=0.00347222 MHz	Frequency=0.004 MHz	Frequency=0.00446429 MHz	Frequency=0.005 MHz
x1 = 0.0463	1.46	1.47	1.47	1.47	1.47	1.47	1.47	1.47	1.47	1.47
x1 = 0.0987	2.2	2.2	2.21	2.21	2.21	2.21	2.21	2.21	2.21	2.21
x1 = 0.1449	2.51	2.51	2.51	2.51	2.51	2.51	2.51	2.51	2.51	2.51
x1 = 0.1859	2.65	2.65	2.66	2.66	2.67	2.67	2.67	2.67	2.67	2.67
x1 = 0.2493	2.606	2.608	2.61	2.61	2.611	2.611	2.612	2.612	2.612	2.612
x1 = 0.3029	2.526	2.53	2.53	2.54	2.54	2.54	2.54	2.54	2.54	–
x1 = 0.3845	2.35	2.36	2.36	2.36	2.36	2.36	2.36	2.36	2.36	–
x1 = 0.4985	2.08	2.08	2.08	2.08	2.08	2.08	2.08	2.08	2.08	–
x1 = 0.6954	1.67	1.68	1.68	1.68	1.68	1.68	1.68	1.68	1.68	–
x1 = 0.9013	1.39	1.39	1.39	1.39	1.39	1.39	1.39	1.39	1.39	–
x1 = 1	1.315	1.316	1.316	1.316	1.317	1.317	1.317	1.317	1.317	–
